US20240180888A1, “C5AR1 INHIBITORS FOR TREATING […] REACTIONS TO TAXANES” (Dompe' Farmaceutici SPA, priority 2021, published 2024)
“Also recorded” adds a separate entry of the source.

Key:
[1] = test system: RAW 264.7 mouse macrophages; test: Proteome profiler cytokine release assay in RAW 264.7 macrophages; assay type: cell-based; settings: stimulus C5a 10 nM or Paclitaxel 10 nM, 24 h; DF3966A 10 μM, anti C5aR Ab 50 nM, Avacopan 10 μM
Experimental: RAW 264.7 (ATTC TIB-71) mouse macrophages were cultured following manufacturer's instructions using DMEM medium (Euroclone, MI, Italy) supplemented with 10% FBS (non-heat inactivated) (ATCC, USA) at 37° C., in a humidified 95% air-5% CO2 atmosphere and then were seeded at 1*10^4 cells/cm^2.
(§1) After 24 hours, cells were treated with C5a (diluted in medium) (10 nM, R&D, USA), Paclitaxel (diluted in medium) (10 nM, Sigma, USA) in the absence and in the presence of the C5a inhibitor DF3966A (10 μM), and anti C5aR Ab (BioLegend, CA, USA; 50 nM) or Avacopan (10 μM) for 24 hours, then the media was replaced with culture media (5 ml) for 24 h and then collected.
(§2) Conditioned media were centrifugated to remove particulates and assayed immediately. […] The reagents were prepared following manufacturer's protocols (R&D, USA). Briefly, the membranes were incubated with Array Buffer 6 for 1 hour on a rocking platform shaker. The samples were prepared by adding up to 1 ml of Array Buffer 4 in two separated tubes and then 15 microl of reconstituted mouse cytokine detection antibody cocktail (>40 mouse cytokines) to each prepared sample and incubated 1 hour. Then, the Array Buffer 6 was aspirated and replaced with the sample/antibody mixtures and incubated at 4° C. overnight. The following day, membranes were washed 3 times and Streptavidin-HRP (1:2000) was incubated for 30 minutes at room temperature on a rocking platform shaker. The membranes were washed again, and 1 ml of prepared Chemi Reagent mix was placed onto each membrane. Multiple exposure times were acquired using UVITEC digital analyzer (Alliance, Cambridge, UK).
(§3) The positive signals seen in the developed membranes can be identified by placing the transparency overlay template on the array image and aligning it with pairs of reference spots in the three corners of each array (see FIG. 10). […] Pixel densities (average signals of pair of duplicates which represent each cytokine) were analyzed by ImageJ and the average background was subtracted from each spot.
(§4) In details, the profiling of cytokines released (>40 cytokines) from RAW 264.7 and human macrophages challenged with paclitaxel (Sigma-Aldrich; 10 nM) or C5a (R&D Systems, Inc. MN, USA; 10 nM) for 24 h using a proteome profiler assay. […] The experimental assay is explained in example 4.
(§5) For the human macrophages, human XL Cytokine Array kit #Ary022B was used, while for murine macrophages mouse cytokine Array Panel A #Ary006 was used (R&D systems, USA).

[2] = test system: human (THP-1) macrophages; test: Proteome profiler cytokine release assay in human macrophages; assay type: cell-based; settings: human macrophages; stimulus C5a 10 nM or paclitaxel 10 nM, 24 h
Experimental: as §1, §2, §3, §4, §5

[3] = test system: paclitaxel-induced HSRs in mice; test: Prevention of paclitaxel-induced HSRs in vivo by C5aR1 inhibition (Example 8); settings: 30 mg/kg, os; for increment of serum concentration of complement 5b-9 (SC5b-9) / increment of serum concentration of histamine: pre-treatment, paclitaxel-treated mice, ELISA; for paclitaxel-induced increase of plasma extravasation / paclitaxel-induced increase of vascular leakage: DF3966A 3 h, Avacopan 1 h before paclitaxel 20 mg/kg iv in Cremophor EL
Experimental: ) was intravenousely administrated at 20 mg/kg (0.1 mL/Kg) dissolved in Cremophor EL (polyoxyl 35 castor oil, Sigma-Aldrich, cod. 238470). […] Cremophor alone (Cremophor) was used as a control. […] Intracardiac injection was done to obtain blood in tubes and leaving it undisturbed at room temperature. Serum was separated from blood cells 30 minutes later by centrifugation (2000×g for 10 min, at 4° C.). Aliquots were prepared and stored at -20° C. ELISA kit was used to evaluate the following marker: histamine and SC5b-9 (Mybiosource, San Diego, USA Cat.No: MBS9361379, MBS725193).

Structure (SMILES): Cc1ccc(NC(=O)[C@H]2CCCN(C(=O)c3c(C)cccc3F)[C@H]2c2ccc(NC3CCCC3)cc2)cc1C(F)(F)F [Avacopan, (2R,3S)-2-[4-(Cyclopentylamino)phenyl]-1-(2-fluoro-6-methylbenzoyl)-N-[4-methyl-3-(trifluoromethyl)phenyl]piperidine-3-carboxamide]
- effect on C5a- and paclitaxel-induced cytokine release [1]: inhibited; also recorded: counteracted
- effect on C5a- and paclitaxel-induced cytokine release [2]: effectively counteracted
- increment of serum concentration of complement 5b-9 (SC5b-9) [3]: significatively reduced
- increment of serum concentration of histamine [3]: significatively reduced
- paclitaxel-induced increase of plasma extravasation [3]: abolishing
- paclitaxel-induced increase of vascular leakage [3]: abolishing

Structure (SMILES): C[C@H](c1ccc(Nc2nc(C(F)(F)F)cs2)cc1)c1nn[nH]n1 [DF3966A, 5-[(1R)-1-(4-{[4-(trifluoromethyl)-1,3-thiazol-2-yl]amino}phenyl)ethyl]tetrazol-2-ide]
- effect on C5a- and paclitaxel-induced cytokine release [1]: inhibited; also recorded: counteracted
- effect on C5a- and paclitaxel-induced cytokine release [2]: effectively counteracted
- increment of serum concentration of complement 5b-9 (SC5b-9) [3]: significatively reduced
- increment of serum concentration of histamine [3]: significatively reduced
- paclitaxel-induced increase of plasma extravasation [3]: abolishing
- paclitaxel-induced increase of vascular leakage [3]: abolishing
